Literature values in PMC9260974 (BMC Pharmacology & Toxicology, 2022).

Settings: in vivo, po; cited from earlier work

SMILES: C[C@H](CS)C(=O)N1CCC[C@H]1C(=O)O [captopril]
- Reduction of bioavailability by food: 35-50%
